Measured values taken from patent publication US20110293658A1, “USE OF INKT OR TLR AGONISTS FOR PROTECTING AGAINST OR TREATING A DISEASE SUCH AS ACUTE INFECTION OR CANCER” (LUDWIG INSTITUTE FOR CANCER RESEARCH LTD., priority 2008, published 2011).

Legend:
[1] = tested on: EG7 cells (EL4 tumor cell line transfected with ovalbumin cDNA); set-up: species or system C57 BL/6 mice; conditions: mouse, in vivo, iv
CD11bCD15 positive cells = assay: Melan-A priming experiments with CD11bCD15 positive cells from melanoma patients; format: cell-based, human; conditions: CD11bCD15 positive cells pulsed with alphaGalCer 100 ng or Threitolceramide 200 ng
Protocol: CD11bCD15 positive cells were pulsed with either alphaGalCer (100 ng) or Threitolceramide (200 ng) for 2 hours and then incubated with autologous iNKT cells overnight before adding autologous DC pulsed with Melan-A26-35 peptide and autologous CD11bCD15 cell depleted total leukocytes.
Experiments in FIG. 29 were carried out using the same conditions as shown in the right column of FIG. 28 (i.e. in the presence of iNKT cells and alphaGalCer pulsed CD11bCD15 positive cells) in the presence of either blocking anti CD1d (middle column) or blocking anti CD40 (right column) antibodies.
In order to assess whether secretion of IL-10 is contributing to the suppressive activity of CD11bCD15 positive cells, expansion of Melan-A26-35 specific T cell responses as assessed in the presence or absence of blocking anti 11-10 receptor antibodies. In the left hand panel of FIG. 31, expansion of Melan-A26-35 specific T cells was assessed using total leukocytes from which CD11b-CD15+ cells were removed (2.33%). Addition of CD11bCD15 positive cells reduced the frequency of Melan-A26-35 specific T cells (0.83%) (central panel).
Purification of CD11b/CD15+ cells. Since CD15 CD11b positive cells have granulocyte density, it is important to purify them without using density gradients, such as Ficol. Red blood cells are lysed from whole blood, using red lysis cell buffer and anti CD11b/CD15 specific antibodies are added to the leukocytes for FACS guided cell sorting.
Melan-A priming experiments. DCs were generated by culturing monocytes for 4 days in RPMI/10% FCS supplemented with 50 ng/ml GM-CSF (Pepro-tech) and 1,000 U/ml IL-4 (Salio, M., et al. 2007. Proc. Natl. Acad. Sci. U.S.A. 104:20490-20495). […] After 2 weeks, cells were stained with HLA-A2 tetramers loaded with melan-A26-35 peptide and anti CD8.
Harnessing iNKT cells. The protocol to purify Cdl lbCd15 cells and differentiate DC is similar to the protocol described earlier. Cdl lbCd15 cells were pulsed with either alphaGalCer (100 ng) or with threitolceramide (200 ng) and then incubated with iNKT cells for 12 hours. Cells were then washed pulsed with the melan-A26-35 peptide and incubated with total leukocytes. After 2 weeks in culture, cells were stained with HLA-A2 melan-A tetramers and anti-CD8 antibodies.

[2] = tested on: human GM-CSF treated MDSC; assay: Mixed lymphocyte reaction with healthy donors' GM-CSF treated MDSC; format: cell-based; conditions: for T cell proliferation in MLR with TLR-L treated MDSC: LPS 10 μg/ml, R848 5 μg/ml, Poly I:C 10 μg/ml, 24 h co-culture with added human iNKT cells, DC:MDSC 1:1
[3] = tested on: lung derived MDSC (CD11b+ Gr-1+ cells) from PR8 infected mice; format: cell-based, mouse
[4] = tested on: CD11b+ cells from IAV infected individuals; format: cell-based, human; conditions: L-NMMA and NOHA added together to alloreactive PBL; data not shown
BM derived MDSC = assay: OT-I proliferation assay with BM derived MDSC; format: cell-based, mouse; conditions: for MDSC suppressive activity on CFSE labelled OT-I proliferation: MDSC incubated 48 h with TLR agonist, in the absence of iNKT cells
iNKT cells = assay: IFN-γ and IL-4 release from iNKT cells incubated with treated MDSC; format: cell-based, mouse; conditions: WT MDSC treated with TLR agonist, iNKT cells incubated 48 h
Protocol: (B) IFN-γ and IL-4 release from iNKT cells incubated for 48 h with CpG or Poly I:C treated MDSC, in the presence or absence of anti CD1d blocking antibody. Data represent the average of 3 replicates ±S.D and are representative of 3 separate experiments.
(A) iNKT cells derived from WT mice fail to produce IFN-γ when incubated with TLR-L matured MDSC derived from hexβ^−/− mice. Analysis of IFN-γ secretion by iNKT cells, derived from WT mice, co-incubated with TLR-L treated MDSC derived from either hexβ^−/− or iGb3S^−/− mice. To assess the role of CD1d molecules expressed on the surface of MDSC, TLR-L treated MDSC were also incubated with blocking […].
Isolation and culture of mouse MDSC. […]
Isolation of mouse iNKT cells. […] The % of iNKT cells was measured by CD1d/α-GalCer tetramer staining and ranged from ˜14% to ˜60%. […]
ELISA: 1) Cytokines. […] The amount of IL-12p40, IFN-γ and IL4 was measured using an ELISA kit (eBioscience). […] Sera from PR8 infected mice were collected 6 days post infection and antibody titers were determined by coating 96-well maxisorb NUNC plates with 5 ng/ml of PR8 virus overnight at 4° C. […] Color reactions were developed with 3,3′,5-5′-Tetramethylbenzidine (TMB) (Sigma-Aldrich) and the absorbance was measured at 490 nm.

Molecule: CCCCCCCCCCCCCCCCCCCCCCCCCC(=O)N[C@@H](COC[C@H](O)[C@@H](O)CO)[C@H](O)[C@H](O)CCCCCCCCCCCCCC [threitolceramide]
- frequency of MDSCs (CD11b+Gr1+ positive cells) [1]: lower frequency
- frequency of Ova specific T cell responses (H-2Kb tetramer staining) [1]: higher frequency
- tumor size / tumor regression [1]: Tumour regression
- frequency of Melan-A26-35 specific T cells (CD11bCD15 positive cells; in the absence of added iNKT cells, unpulsed 0.34%): 0.29%
- frequency of Melan-A26-35 specific T cells (CD11bCD15 positive cells; with addition of autologous iNKT cells): 2.87%

Molecule: CNC(=N)NCCC[C@H](N)C(=O)O [L-NMMA, N^G-monomethyl-L-arginine]
- MLR suppressive activity of healthy donors GM-CSF treated MDSC ([2]; NOHA and L-NMMA added together): can be blocked
- PBL proliferation in MLR in the absence of MDSC ([2]; NOHA and L-NMMA added together, no MDSC, data not shown): does not affect PBL proliferation
- OT-I proliferation in the absence of MDSC ([3]; L-NMMA and NOHA added together to OT-I splenocytes, no MDSC, data not shown): did not affect OT-I proliferation
- suppressive activity of MDSC from PR8 infected mice on CFSE labelled OT-I proliferation ([3]; […], L-NMMA and NOHA used together (500 μM)): is reduced
- T cell proliferation in the absence of CD11b+ cells [4]: did not affect T cell proliferation

Molecule: CCOCc1nc2c(N)nc3ccccc3c2n1CC(C)(C)O [R848]
- T cell proliferation in MLR with TLR-L treated MDSC [2]: rescues T cell proliferation
- MDSC suppressive activity on CFSE labelled OT-I proliferation (BM derived MDSC): partially relieved

Molecule: CCCCN1C[C@H](O)[C@@H](O)[C@@H](O)[C@H]1CO [NB-DGJ, N-butyldeoxygalactonojirimycin]
- ability of iNKT cells to relieve the suppressive activity of MDSC (CFSE labelled OT-I proliferation) (BM derived MDSC; CpG and poly I:C treated MDSC, increasing concentrations of NB-DGJ, incubated with iNKT cells 24 h): reduced the ability of iNKT cells to relieve the suppressive activity of MDSC
- OT-I proliferation in absence of MDSC (BM derived MDSC; NB-DGJ added to OT-I splenocytes, no MDSC, data not shown): did not affect OT-I proliferation

Molecule: poly I:C
- T cell proliferation in MLR with TLR-L treated MDSC [2]: rescues T cell proliferation
- MDSC suppressive activity on CFSE labelled OT-I proliferation (BM derived MDSC): partially relieved
- activation of iNKT cells by treated MDSC (IFNγ and IL-4 secretion) (iNKT cells): capable of activating iNKT cells
